Results: the supplement of paper PMC13207355

How the values were obtained:
Conditions in all cases: exposure time: 72 h
[1] = tested on: E28 (patient-derived glioblastoma stem cells of classical subtype); test: surviving fraction (nuclei count normalised to DMSO); higher = more cells surviving (less toxic)
[2] = tested on: FT3469 (normal neural stem cell line); test: as above
[3] = tested on: E13 (patient-derived glioblastoma stem cells of classical subtype); test: as above
[4] = tested on: E57 (patient-derived glioblastoma stem cells of mesenchymal subtype); test: as above
[5] = tested on: E34 (patient-derived glioblastoma stem cells of proneural subtype); test: as above
[6] = tested on: E21 (patient-derived glioblastoma stem cells of mesenchymal subtype); test: as above
[7] = tested on: E31 (patient-derived glioblastoma stem cells of proneural subtype); test: as above
[8] = tested on: E28; test: phenotypic distance (Euclidean, principal components) from DMSO controls (arbitrary units); higher = stronger morphological change
[9] = tested on: FT3469; test: as above
[10] = tested on: E13; test: as above
[11] = tested on: E57; test: as above
[12] = tested on: E34; test: as above
[13] = tested on: E21; test: as above
[14] = tested on: E31; test: as above
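Wherever phenotypic distance (Euclidean, principal components) from DMSO controls is given: cell Painting imaging in 384-well plates, CellProfiler features reduced to at least 20 principal components, Euclidean distance versus same-plate DMSO vehicle wells (0.1% v/v), median over six images per well.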
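Wherever surviving fraction (nuclei count normalised to DMSO) is given: nuclei counted by high-content imaging of Hoechst-stained cells in laminin-coated 384-well plates, relative to 0.1% DMSO vehicle wells, with staurosporine as cell-death control.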

CCCSc1ccc2[nH]c(NC(=O)OC)nc2c1 [Albendazole]
Conditions | phenotypic distance | surviving fraction
[1], 4.1 nM | – | 0.86
[1], 12.3 nM | – | 0.988
[1], 37 nM | – | 0.734
[1], 111.1 nM | – | 1.04
[1], 333.3 nM | – | 0.719
[1], 1000 nM | – | 0.536
[1], 3000 nM | – | 0.28
[2], 4.1 nM | – | 0.783
[2], 12.3 nM | – | 0.812
[2], 37 nM | – | 0.76
[2], 111.1 nM | – | 0.924
[2], 333.3 nM | – | 0.725
[2], 1000 nM | – | 0.662
[2], 3000 nM | – | 0.504
[3], 4.1 nM | – | 0.787
[3], 12.3 nM | – | 0.877
[3], 37 nM | – | 0.931
[3], 111.1 nM | – | 0.655
[3], 333.3 nM | – | 0.439
[3], 1000 nM | – | 0.373
[3], 3000 nM | – | 0.222
[4], 4.1 nM | – | 1.02
[4], 12.3 nM | – | 0.99
[4], 37 nM | – | 0.873
[4], 111.1 nM | – | 0.909
[4], 333.3 nM | – | 0.715
[4], 1000 nM | – | 0.257
[4], 3000 nM | – | 0.0825
[5], 4.1 nM | – | 0.934
[5], 12.3 nM | – | 1.06
[5], 37 nM | – | 0.937
[5], 111.1 nM | – | 0.927
[5], 333.3 nM | – | 0.656
[5], 1000 nM | – | 0.476
[5], 3000 nM | – | 0.439
[6], 4.1 nM | – | 0.887
[6], 12.3 nM | – | 0.807
[6], 37 nM | – | 0.834
[6], 111.1 nM | – | 0.804
[6], 333.3 nM | – | 0.755
[6], 1000 nM | – | 0.169
[6], 3000 nM | – | 0.118
[7], 4.1 nM | – | 0.993
[7], 12.3 nM | – | 0.833
[7], 37 nM | – | 0.874
[7], 111.1 nM | – | 0.758
[7], 333.3 nM | – | 0.408
[7], 1000 nM | – | 0.186
[7], 3000 nM | – | 0.0928
[8], 4.1 nM | 0.748 | –
[8], 12.3 nM | 0.904 | –
[8], 37 nM | 0.875 | –
[8], 111.1 nM | 1.25 | –
[8], 333.3 nM | 2.28 | –
[8], 1000 nM | 3.22 | –
[8], 3000 nM | 3.85 | –
[9], 4.1 nM | 0.912 | –
[9], 12.3 nM | 1.05 | –
[9], 37 nM | 0.721 | –
[9], 111.1 nM | 1.33 | –
[9], 333.3 nM | 2.27 | –
[9], 1000 nM | 3.43 | –
[9], 3000 nM | 3.98 | –
[10], 4.1 nM | 1.01 | –
[10], 12.3 nM | 0.56 | –
[10], 37 nM | 0.737 | –
[10], 111.1 nM | 2.95 | –
[10], 333.3 nM | 4.43 | –
[10], 1000 nM | 4.68 | –
[10], 3000 nM | 7.36 | –
[11], 4.1 nM | 0.729 | –
[11], 12.3 nM | 1.11 | –
[11], 37 nM | 0.859 | –
[11], 111.1 nM | 1.5 | –
[11], 333.3 nM | 3.52 | –
[11], 1000 nM | 5.59 | –
[11], 3000 nM | 4.71 | –
[12], 4.1 nM | 0.51 | –
[12], 12.3 nM | 1.47 | –
[12], 37 nM | 1.32 | –
[12], 111.1 nM | 0.857 | –
[12], 333.3 nM | 2.54 | –
[12], 1000 nM | 3.76 | –
[12], 3000 nM | 5.5 | –
[13], 4.1 nM | 1.02 | –
[13], 12.3 nM | 0.918 | –
[13], 37 nM | 1.01 | –
[13], 111.1 nM | 1.35 | –
[13], 333.3 nM | 3.4 | –
[13], 1000 nM | 7.12 | –
[13], 3000 nM | 8.62 | –
[14], 4.1 nM | 0.384 | –
[14], 12.3 nM | 0.712 | –
[14], 37 nM | 0.564 | –
[14], 111.1 nM | 1.13 | –
[14], 333.3 nM | 3.4 | –
[14], 1000 nM | 5.94 | –
[14], 3000 nM | 5.22 | –

CCC(=O)OCC(=O)[C@@]1(OC(=O)CC)[C@H](C)C[C@H]2[C@H]3[C@H]([C@@H](O)C[C@@]21C)[C@@]1(C)C=CC(=O)C=C1C[C@H]3Cl [Alclometasone dipropionate]
Conditions | phenotypic distance | surviving fraction
[1], 4.1 nM | – | 1.25
[1], 12.3 nM | – | 0.854
[1], 37 nM | – | 1.17
[1], 111.1 nM | – | 0.928
[1], 333.3 nM | – | 1.08
[1], 1000 nM | – | 1.38
[1], 3000 nM | – | 0.939
[2], 4.1 nM | – | 1.16
[2], 12.3 nM | – | 1.29
[2], 37 nM | – | 1.33
[2], 111.1 nM | – | 1.15
[2], 333.3 nM | – | 1.07
[2], 1000 nM | – | 1.19
[2], 3000 nM | – | 1.02
[3], 4.1 nM | – | 0.975
[3], 12.3 nM | – | 0.888
[3], 37 nM | – | 0.926
[3], 111.1 nM | – | 0.859
[3], 333.3 nM | – | 0.951
[3], 1000 nM | – | 0.974
[3], 3000 nM | – | 0.671
[4], 4.1 nM | – | 1.12
[4], 12.3 nM | – | 1.18
[4], 37 nM | – | 1.1
[4], 111.1 nM | – | 1.07
[4], 333.3 nM | – | 1.11
[4], 1000 nM | – | 1.14
[4], 3000 nM | – | 1.13
[5], 4.1 nM | – | 1.1
[5], 12.3 nM | – | 1.15
[5], 37 nM | – | 1.1
[5], 111.1 nM | – | 1.1
[5], 333.3 nM | – | 0.991
[5], 1000 nM | – | 1.06
[5], 3000 nM | – | 0.984
[6], 4.1 nM | – | 1.32
[6], 12.3 nM | – | 1.26
[6], 37 nM | – | 1.21
[6], 111.1 nM | – | 1.39
[6], 333.3 nM | – | 1.2
[6], 1000 nM | – | 1.2
[6], 3000 nM | – | 1.1
[7], 4.1 nM | – | 1.3
[7], 12.3 nM | – | 1.46
[7], 37 nM | – | 1.4
[7], 111.1 nM | – | 1.41
[7], 333.3 nM | – | 1.12
[7], 1000 nM | – | 1.19
[7], 3000 nM | – | 1.23
[8], 4.1 nM | 0.573 | –
[8], 12.3 nM | 0.69 | –
[8], 37 nM | 0.865 | –
[8], 111.1 nM | 0.821 | –
[8], 333.3 nM | 0.465 | –
[8], 1000 nM | 1.06 | –
[8], 3000 nM | 0.433 | –
[9], 4.1 nM | 1.11 | –
[9], 12.3 nM | 1.62 | –
[9], 37 nM | 1.67 | –
[9], 111.1 nM | 2.12 | –
[9], 333.3 nM | 1.8 | –
[9], 1000 nM | 1.92 | –
[9], 3000 nM | 1.23 | –
[10], 4.1 nM | 1.28 | –
[10], 12.3 nM | 1.12 | –
[10], 37 nM | 1.27 | –
[10], 111.1 nM | 1.15 | –
[10], 333.3 nM | 1.25 | –
[10], 1000 nM | 1.24 | –
[10], 3000 nM | 1.47 | –
[11], 4.1 nM | 1.91 | –
[11], 12.3 nM | 2.63 | –
[11], 37 nM | 2.58 | –
[11], 111.1 nM | 2.62 | –
[11], 333.3 nM | 3.15 | –
[11], 1000 nM | 3.25 | –
[11], 3000 nM | 2.81 | –
[12], 4.1 nM | 0.626 | –
[12], 12.3 nM | 1.12 | –
[12], 37 nM | 0.662 | –
[12], 111.1 nM | 1.42 | –
[12], 333.3 nM | 1.36 | –
[12], 1000 nM | 1.38 | –
[12], 3000 nM | 1.48 | –
[13], 4.1 nM | 1.94 | –
[13], 12.3 nM | 2.13 | –
[13], 37 nM | 2.45 | –
[13], 111.1 nM | 3.04 | –
[13], 333.3 nM | 2.13 | –
[13], 1000 nM | 2.23 | –
[13], 3000 nM | 2.27 | –
[14], 4.1 nM | 2.71 | –
[14], 12.3 nM | 4.05 | –
[14], 37 nM | 4.11 | –
[14], 111.1 nM | 3.84 | –
[14], 333.3 nM | 2.94 | –
[14], 1000 nM | 3.4 | –
[14], 3000 nM | 3.3 | –
